Assay results reported in the supplement of paper PMC10307832.

Assays:
Assay in all cases: relative viability (nuclei count vs DMSO), 5 days (fraction); higher = more cells survive
Afatinib + Foretinib = compound: CN(C)C/C=C/C(=O)Nc1cc2c(Nc3ccc(F)c(Cl)c3)ncnc2cc1O[C@H]1CCOC1 [Afatinib] + COc1cc2c(Oc3ccc(NC(=O)C4(C(=O)Nc5ccc(F)cc5)CC4)cc3F)ccnc2cc1OCCCN1CCOCC1 [Foretinib] (partner 0.25 µM)
In short: (§1)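 One day after seeding in 1536-well plates, lung cancer cell lines were dosed by pin tool. Dosing was either single-drug or a fixed anchor-drug dose plus five library-drug doses (not always all listed) in √10 steps. After 5 days, nuclei were stained in one fix-and-stain step and counted on 4× images, and relative viability is the nuclei count of treated wells over that of vehicle wells, given as the median of duplicate plates.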

Afatinib + Pictilisib = compound: CN(C)C/C=C/C(=O)Nc1cc2c(Nc3ccc(F)c(Cl)c3)ncnc2cc1O[C@H]1CCOC1 [Afatinib] + CS(=O)(=O)N1CCN(Cc2cc3nc(-c4cccc5[nH]ncc45)nc(N4CCOCC4)c3s2)CC1 [Pictilisib] (partner 1 µM)
In short: as §1

Afatinib + AZD7762 = compound: CN(C)C/C=C/C(=O)Nc1cc2c(Nc3ccc(F)c(Cl)c3)ncnc2cc1O[C@H]1CCOC1 [Afatinib] + NC(=O)Nc1cc(-c2cccc(F)c2)sc1C(=O)N[C@H]1CCCNC1 [AZD7762] (partner 0.2 µM)
In short: as §1

Afatinib + Vorinostat = compound: CN(C)C/C=C/C(=O)Nc1cc2c(Nc3ccc(F)c(Cl)c3)ncnc2cc1O[C@H]1CCOC1 [Afatinib] + O=C(CCCCCCC(=O)Nc1ccccc1)NO [Vorinostat] (partner 1 µM)
In short: as §1

Cell Line	relative viability (Afatinib + Foretinib; first compound 0.005 µM)	relative viability (Afatinib + Foretinib; first compound 0.01581 µM)	relative viability (Afatinib + Foretinib; first compound 0.05 µM)	relative viability (Afatinib + Foretinib; first compound 0.1581 µM)	relative viability (Afatinib + Foretinib; first compound 0.5 µM)	relative viability (Afatinib + Pictilisib; first compound 0.005 µM)	relative viability (Afatinib + Pictilisib; first compound 0.01581 µM)	relative viability (Afatinib + Pictilisib; first compound 0.05 µM)	relative viability (Afatinib + Pictilisib; first compound 0.1581 µM)	relative viability (Afatinib + Pictilisib; first compound 0.5 µM)	relative viability (Afatinib + AZD7762; first compound 0.005 µM)	relative viability (Afatinib + AZD7762; first compound 0.01581 µM)	relative viability (Afatinib + AZD7762; first compound 0.05 µM)	relative viability (Afatinib + AZD7762; first compound 0.1581 µM)	relative viability (Afatinib + AZD7762; first compound 0.5 µM)	relative viability (Afatinib + Vorinostat; first compound 0.005 µM)	relative viability (Afatinib + Vorinostat; first compound 0.01581 µM)	relative viability (Afatinib + Vorinostat; first compound 0.05 µM)	relative viability (Afatinib + Vorinostat; first compound 0.1581 µM)	relative viability (Afatinib + Vorinostat; first compound 0.5 µM)
201T	1.04	1.05	1.01	0.949	1.17	0.682	0.658	0.662	0.659	0.698	0.483	0.626	0.599	0.667	0.62	0.936	0.902	0.922	0.783	0.957
NCI-H838	1.07	1.01	1.11	1.02	1.26	0.441	0.462	0.453	0.497	0.524	0.801	0.946	0.915	0.968	0.953	0.695	0.74	0.74	0.639	0.801
PC-14	0.45	0.149	0.184	0.179	0.183	0.109	0.0863	0.108	0.0958	0.0837	0.235	0.157	0.139	0.166	0.14	0.112	0.0624	0.108	0.0886	0.124
LK-2	0.994	1.13	0.851	1.06	0.997	0.546		0.485	0.596	0.535	0.465	0.328	0.371	0.329	0.521	0.349	0.269	0.277	0.2	0.382
NCI-H1944	0.797	0.899	0.668	0.535	0.657	0.387	0.307	0.335	0.319	0.335	0.297	0.496	0.413	0.343	0.404	0.514	0.562	0.42	0.413	0.406
HCC-78	0.549	0.568	0.405	0.324	0.386	0.207	0.189	0.19	0.218	0.173	0.693	0.542	0.509	0.478	0.449	0.433	0.404	0.422	0.345	0.376
NCI-H2405	1.07	1.02	1.05	0.978	1.08	0.445	0.47	0.611	0.473	0.57	0.763	0.759	0.839	0.666	0.562	1.2	0.848	0.976	0.953	0.938
EMC-BAC-2	1.03	0.952	0.865	0.753	0.928	0.516	0.531	0.544	0.529	0.496	1.07	1.17	1.14	1.06	1.19	0.558	0.236	0.596	0.465	0.438
NCI-H596	0.811	0.952	0.675	0.643	0.873	0.35	0.394	0.4	0.384	0.415	1.06	1.01	1.11	1.09	0.901	0.706	0.541	0.571	0.745	0.62
LCLC-97TM1	1	0.906	0.894	0.808	0.907	0.27	0.182	0.182	0.144	0.15	0.164	0.259	0.186	0.42	0.18	0.793	0.784	0.861	0.628	0.646
H3255	0.861	0.134	0.2	0.216	0.188	0.173	0.118	0.132	0.11	0.104	0.405	0.284	0.278	0.259	0.287	0.277	0.207	0.229	0.185	0.952
LXF-289	0.983	0.977	0.905	0.91	0.884	0.829	0.701	0.695	0.706	0.777	1.05	1.03	1.11	1.02	1.02	0.762	0.678	0.748	0.753	0.716
LC-2-ad	0.815	0.718	0.565	0.565	0.6	0.617	0.427	0.439	0.359	0.375	0.782	0.713	0.559	0.411	0.46	0.767	0.717	0.705	0.662	0.78
A-427	0.85	1.05	1.11	0.947	1.02	0.729	0.684	0.587	0.774	0.658	0.587	0.705	0.823	0.676	0.698	0.929	0.89	0.848	0.833	0.908
NCI-H322M	0.765	0.566	0.493	0.535	0.449	0.441	0.396	0.351	0.327	0.279	0.433	0.407	0.389	0.402	0.348	0.825	0.506	0.658	0.61	0.567
HCC-366	0.916	0.949	0.868	0.937	0.914	0.143	0.123	0.224	0.134	0.191	0.194	0.285	0.259	0.337	0.264	0.329	0.36	0.348	0.36	0.345
